Data published in the supplement of paper PMC10307832.

Key:
Experiment in all cases: relative viability (nuclei count vs DMSO), 5 days (fraction); higher = more cells survive
Entinostat + Foretinib = compound: Nc1ccccc1NC(=O)c1ccc(CNC(=O)OCc2cccnc2)cc1 [Entinostat] + COc1cc2c(Oc3ccc(NC(=O)C4(C(=O)Nc5ccc(F)cc5)CC4)cc3F)ccnc2cc1OCCCN1CCOCC1 [Foretinib] (partner 0.25 µM)
Method in brief: (§1)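 Nuclei were stained with Hoechst during a one-step fixation (final 0.05% Triton X-100, 1% formaldehyde, 1 ug/ml Hoechst) carried out 5 days after dosing, then counted on 4× images. The cells, lung cancer lines in 1536-well plates, had been dosed by pin tool the day after seeding with one drug alone or a fixed anchor-drug dose plus five library-drug doses (not always all listed) in √10 steps. Relative viability is the nuclei count in treated wells divided by that in vehicle wells, and each value is the median of duplicate plates.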

[1] = compound: C1COCCN1C2=NC(=NC3=C2OC4=C3C=CC=N4)C5=CC(=CC=C5)NC(=O)C6=CN=C(C=C6)N + Cc1cc(Nc2cc(N3CCN(C)CC3)nc(Sc3ccc(NC(=O)C4CC4)cc3)n2)n[nH]1 [Tozasertib] (partner 0.1 µM)
Method in brief: as §1

[2] = compound: C1COCCN1C2=NC(=NC3=C2OC4=C3C=CC=N4)C5=CC(=CC=C5)NC(=O)C6=CN=C(C=C6)N + CC(=O)Nc1cccc(-n2c(=O)n(C3CC3)c(=O)c3c(Nc4ccc(I)cc4F)n(C)c(=O)c(C)c32)c1 [Trametinib] (partner 0.02 µM)
Method in brief: as §1

[3] = compound: C1COCCN1C2=NC(=NC3=C2OC4=C3C=CC=N4)C5=CC(=CC=C5)NC(=O)C6=CN=C(C=C6)N + COc1cc2c(Oc3ccc(NC(=O)C4(C(=O)Nc5ccc(F)cc5)CC4)cc3F)ccnc2cc1OCCCN1CCOCC1 [Foretinib] (partner 0.25 µM)
Method in brief: as §1

Cell Line	relative viability (Entinostat + Foretinib; first compound 0.02 µM)	relative viability (Entinostat + Foretinib; first compound 0.06325 µM)	relative viability (Entinostat + Foretinib; first compound 0.2 µM)	relative viability (Entinostat + Foretinib; first compound 0.6325 µM)	relative viability (Entinostat + Foretinib; first compound 2 µM)	relative viability ([1]; first compound 0.02 µM)	relative viability ([1]; first compound 0.06325 µM)	relative viability ([1]; first compound 0.2 µM)	relative viability ([1]; first compound 0.6325 µM)	relative viability ([1]; first compound 2 µM)	relative viability ([2]; first compound 0.02 µM)	relative viability ([2]; first compound 0.06325 µM)	relative viability ([2]; first compound 0.2 µM)	relative viability ([2]; first compound 0.6325 µM)	relative viability ([2]; first compound 2 µM)	relative viability ([3]; first compound 0.02 µM)	relative viability ([3]; first compound 0.06325 µM)	relative viability ([3]; first compound 0.2 µM)	relative viability ([3]; first compound 0.6325 µM)	relative viability ([3]; first compound 2 µM)
NCI-H1395	1	1.03	0.994	0.846	0.68	0.78	0.709	0.772	0.719	0.576	0.962	0.956	0.898	1.02	0.875	0.919	0.909	0.924	0.984	0.894
NCI-H650	1.16	0.933	1.04	0.839	0.477	0.769	0.766	0.737	0.799	0.513	0.923	1.05	0.951	0.888	0.796	1	1.01	1.06	1.03	0.919
NCI-H661	0.929	0.963	0.923	0.697	0.575	0.34	0.347	0.328	0.342	0.354	0.607	0.631	0.534	0.599	0.436	1	1.05	1.02	0.999	0.742
NCI-H1734	0.883	0.939	0.929	0.773	0.603	0.272	0.254	0.257	0.229	0.186	0.657	0.816	0.67	0.635	0.512	0.825	0.948	0.695	0.804	0.563
EKVX	0.879	0.996	0.863	0.572	0.409	0.396	0.391	0.34	0.408	0.236	0.322	0.334	0.298	0.248	0.244	0.97	1.01	0.773	0.751	0.339
NCI-H520	0.686	0.941	0.803	0.683	0.626	0.431	0.437	0.413	0.479	0.327	0.493	0.806	0.758	0.528	0.494	0.839	0.742	0.669	0.798	0.469
NCI-H2342	1.04	1.22	0.947	0.924	0.787	0.505	0.483	0.458	0.405	0.451	0.743	0.963	0.807	0.805	0.79	0.981	1.24	1.02	1.01	0.88
LOU-NH91	0.937	0.984	0.919	0.844	0.779	0.591	0.738	0.649	0.652	0.465	0.78	0.816	0.828	0.782	0.716	0.946	0.952	0.901	0.925	0.845
COR-L23	0.919	0.857	0.943	0.495	0.308	0.219	0.223	0.143	0.181	0.159	0.609	0.669	0.663	0.593	0.469	0.97	1.02	0.99	1.1	0.692
NCI-H1437	0.992	0.804	0.456	0.352	0.261	0.437	0.424	0.398	0.377	0.241	0.492	0.551	0.511	0.419	0.224	1.31	1.29	1.2	1.27	0.856
EPLC-272H	0.684	0.783	0.512	0.243	0.223	0.249	0.173	0.175	0.223	0.199	0.278	–	0.235	0.297	0.281	0.648	0.776	0.66	0.542	0.476
ChaGo-K-1	1.06	0.914	0.893	0.842	0.673	0.217	0.23	0.197	0.228	0.224	0.906	0.987	0.941	0.804	0.602	0.971	1.04	0.955	0.832	0.582
NCI-H1666	1.06	1.02	0.964	0.537	0.366	0.614	0.615	0.588	0.513	0.501	1.04	0.865	0.753	0.751	0.694	1	0.89	0.774	0.85	0.672
RERF-LC-KJ	0.853	0.856	0.84	0.516	0.285	0.594	0.577	0.35	0.327	0.326	0.808	0.971	0.91	0.893	0.689	0.879	0.953	0.888	0.883	0.624
LU99A	0.773	0.739	0.76	0.579	0.442	0.277	0.276	0.231	0.21	0.173	0.592	0.576	0.547	0.452	0.389	0.824	0.821	0.75	0.582	0.497
PC-3 [JPC-3]	0.988	0.977	0.871	0.732	0.41	0.914	0.932	0.85	0.893	0.507	0.65	0.696	–	0.843	0.659	1.14	1.05	0.991	1.07	0.772
